Test results from the NIST ThermoML archive (doi:10.1016/j.jct.2005.07.009).

Tests used:
[1] = 295.15 K; 101.33 kPa; Liquid; Vibrating tube method
[2] = refractive index (Na D-line) (dimensionless); conditions: 298.15 K; 101.33 kPa; Liquid; Standard Abbe refractometry
[3] = xn = mol fraction of the nth substance listed; conditions: 298.15 K, 101 kPa, Liquid, Vibrating tube method
[4] = excess molar enthalpy (molar enthalpy of mixing); xn = mol fraction of the nth substance listed; conditions: 298.15 K, 101 kPa, Liquid

BrCCBr [1,2-dibromoethane]
Conditions | mass density [kg/m3] | refractive index
[1] | 2168.3 | –
[2] | – | 1.5357

BrCCCBr [1,3-dibromopropane]
Conditions | mass density [kg/m3] | refractive index
[1] | 1970.25 | –
[2] | – | 1.5204

BrCCCCBr [1,4-dibromobutane]
Conditions | mass density [kg/m3] | refractive index
[1] | 1819.44 | –
[2] | – | 1.5163

BrCCCCCBr [1,5-dibromopentane]
Conditions | mass density [kg/m3] | refractive index
[1] | 1694.09 | –
[2] | – | 1.5099

BrCCCCCCBr [1,6-dibromohexane]
Conditions | mass density [kg/m3] | refractive index
[1] | 1601.8 | –
[2] | – | 1.506

BrCCCCCCBr [1,6-dibromohexane] + CCOC(=O)CC
Conditions | excess molar enthalpy [kcal/mol] | mass density [kg/m3]
[3], x2 = 0.0785 | – | 1558.6
[3], x2 = 0.1542 | – | 1515.02
[3], x2 = 0.223 | – | 1474.07
[3], x2 = 0.2897 | – | 1432.85
[3], x2 = 0.3566 | – | 1390.07
[3], x2 = 0.4169 | – | 1350.15
[3], x2 = 0.5364 | – | 1266.98
[3], x2 = 0.595 | – | 1224.16
[3], x2 = 0.6523 | – | 1181.7
[3], x2 = 0.7055 | – | 1139.41
[3], x2 = 0.7573 | – | 1097.77
[3], x2 = 0.8052 | – | 1058.09
[3], x2 = 0.8583 | – | 1012.69
[3], x2 = 0.9041 | – | 972.41
[4], x2 = 0.0655 | 0.0105 | –
[4], x2 = 0.1421 | 0.0184 | –
[4], x2 = 0.2176 | 0.0235 | –
[4], x2 = 0.2889 | 0.0262 | –
[4], x2 = 0.3565 | 0.0268 | –
[4], x2 = 0.4183 | 0.0255 | –
[4], x2 = 0.4746 | 0.0226 | –
[4], x2 = 0.5242 | 0.0188 | –
[4], x2 = 0.5687 | 0.0148 | –
[4], x2 = 0.5968 | 0.0125 | –
[4], x2 = 0.6497 | 0.00894 | –
[4], x2 = 0.7061 | 0.00605 | –
[4], x2 = 0.7663 | 0.0043 | –
[4], x2 = 0.8256 | 0.00308 | –
[4], x2 = 0.8846 | 0.00189 | –
[4], x2 = 0.9439 | 0.000693 | –

BrCCCCCCBr [1,6-dibromohexane] + CCOC(C)=O
Conditions | excess molar enthalpy [kcal/mol] | mass density [kg/m3]
[3], x2 = 0.1101 | – | 1558.02
[3], x2 = 0.2056 | – | 1515.22
[3], x2 = 0.2841 | – | 1476.78
[3], x2 = 0.3679 | – | 1432.01
[3], x2 = 0.4348 | – | 1393.28
[3], x2 = 0.5035 | – | 1350.27
[3], x2 = 0.623 | – | 1266.72
[3], x2 = 0.733 | – | 1177.88
[3], x2 = 0.8165 | – | 1101.03
[3], x2 = 0.8582 | – | 1059.17
[3], x2 = 0.8988 | – | 1015.65
[3], x2 = 0.9703 | – | 932.2
[4], x2 = 0.0852 | 0.0323 | –
[4], x2 = 0.179 | 0.0516 | –
[4], x2 = 0.2657 | 0.0644 | –
[4], x2 = 0.3506 | 0.0739 | –
[4], x2 = 0.4238 | 0.0791 | –
[4], x2 = 0.489 | 0.0806 | –
[4], x2 = 0.5186 | 0.0798 | –
[4], x2 = 0.5344 | 0.0792 | –
[4], x2 = 0.5598 | 0.078 | –
[4], x2 = 0.6031 | 0.0735 | –
[4], x2 = 0.6495 | 0.0677 | –
[4], x2 = 0.7011 | 0.0608 | –
[4], x2 = 0.7507 | 0.0522 | –
[4], x2 = 0.8025 | 0.0431 | –
[4], x2 = 0.8542 | 0.033 | –
[4], x2 = 0.9062 | 0.0221 | –
[4], x2 = 0.9578 | 0.0106 | –

BrCCCCCCBr [1,6-dibromohexane] + CCOC=O
Conditions | excess molar enthalpy [kcal/mol] | mass density [kg/m3]
[3], x2 = 0.1144 | – | 1557.48
[3], x2 = 0.2023 | – | 1519.96
[3], x2 = 0.2923 | – | 1477.74
[3], x2 = 0.3593 | – | 1443.52
[3], x2 = 0.5084 | – | 1357.33
[3], x2 = 0.571 | – | 1316.38
[3], x2 = 0.6288 | – | 1275.6
[3], x2 = 0.6788 | – | 1237.72
[3], x2 = 0.7728 | – | 1159.02
[3], x2 = 0.8233 | – | 1112.18
[3], x2 = 0.8545 | – | 1081.46
[3], x2 = 0.9003 | – | 1033.41
[4], x2 = 0.1027 | 0.00447 | –
[4], x2 = 0.2124 | 0.127 | –
[4], x2 = 0.3116 | 0.161 | –
[4], x2 = 0.4024 | 0.181 | –
[4], x2 = 0.4766 | 0.19 | –
[4], x2 = 0.547 | 0.19 | –
[4], x2 = 0.6032 | 0.183 | –
[4], x2 = 0.6673 | 0.169 | –
[4], x2 = 0.7137 | 0.154 | –
[4], x2 = 0.7608 | 0.136 | –
[4], x2 = 0.8062 | 0.112 | –
[4], x2 = 0.852 | 0.0893 | –
[4], x2 = 0.8953 | 0.0643 | –
[4], x2 = 0.9357 | 0.0394 | –
[4], x2 = 0.9691 | 0.0193 | –

CCCCC(=O)OCC [ethyl pentanoate] + BrCCBr
Conditions | excess molar enthalpy [kcal/mol] | mass density [kg/m3]
[3], x1 = 0.0379 | – | 2085.1
[3], x1 = 0.0766 | – | 2004.73
[3], x1 = 0.1567 | – | 1851.43
[3], x1 = 0.1993 | – | 1776.2
[3], x1 = 0.2427 | – | 1703.76
[3], x1 = 0.2945 | – | 1622.25
[3], x1 = 0.3695 | – | 1512.8
[3], x1 = 0.5222 | – | 1317.39
[3], x1 = 0.6601 | – | 1166.3
[3], x1 = 0.7313 | – | 1096.12
[3], x1 = 0.8119 | – | 1022.28
[3], x1 = 0.9074 | – | 941.5
[4], x1 = 0.0286 | 0.00476 | –
[4], x1 = 0.0632 | 0.0075 | –
[4], x1 = 0.103 | 0.00966 | –
[4], x1 = 0.1465 | 0.0103 | –
[4], x1 = 0.1918 | 0.0102 | –
[4], x1 = 0.2375 | 0.00848 | –
[4], x1 = 0.2837 | 0.00418 | –
[4], x1 = 0.3283 | -0.00098 | –
[4], x1 = 0.3711 | -0.00485 | –
[4], x1 = 0.4026 | -0.00825 | –
[4], x1 = 0.4465 | -0.0112 | –
[4], x1 = 0.4938 | -0.0142 | –
[4], x1 = 0.5538 | -0.0165 | –
[4], x1 = 0.6297 | -0.0178 | –
[4], x1 = 0.7132 | -0.0175 | –
[4], x1 = 0.8085 | -0.0143 | –
[4], x1 = 0.9099 | -0.00844 | –
